# Results reported in patent publication US6034087A, “Nucleoside derivatives and process for preparing thereof” (priority 1994, dated 2000).
# What was measured:
# HBV [1] = details: literature report; cited from earlier work
# HBV [2] = assay: Anti-HBV effect in HepG2 2. 2. 15 cell line; assay type: cell-based, Hepatitis B Virus
# Description: (§1) Anti-HBV effect of 1-(5-hydroxymethyl-1,4-dioxan-2-yl)thymine, one of the desired product of the present invention prepared in Example 38, was tested in HepG2 2. 2. 15 cell line. The resultant Effective Concentration (Ec50, EC90), Cytotoxic Concentration (CC50) and Selectivity Index (SI) are shown in the Table below.
# [3] = Cytotoxic Concentration in HepG2 2. 2. 15 cell line; assay type: cell-based; details: human, hepg2 2.2.15 cells
# Description: as §1
structure (smiles),measurement,setting,value
Nc1nc(=O)n(C2CCC(CO)O2)cc1F [2'3'-dideoxy-β-L-5-fluoro-cytidine],anti-HBV activity (in words),HBV [1],showing anti-HBV activity
"Nc1ccn([C@H]2CS[C@@H](CO)O2)c(=O)n1 [2',3'-dideoxy-3'-thiacytidine]",anti-HBV activity (in words),HBV [1],showing anti-HBV activity
"Nc1ccn(C2CCC(CO)O2)c(=O)n1 [2',3'-dideoxy-β-L-cytidine]",anti-HBV activity (in words),HBV [1],showing anti-HBV activity
"Nc1nc(=O)n([C@H]2CS[C@@H](CO)O2)cc1F [5-fluoro-2',3'-dideoxy-3'-thiacytidine]",anti-HBV activity (in words),HBV [1],showing anti-HBV activity
"Cc1cn(C2COC(CO)CO2)c(=O)[nH]c1=O (centres unmarked) [Compound of Ex.38, 1-(5-hydroxymethyl-1,4-dioxan-2-yl)thymine]",SI (CC50/EC50) (Selectivity Index),HBV [2]; CC50/EC50,188
same,EC50,"HBV [2]; Hepatitis B virus, HepG2 2.2.15, read-out: EC50 (Effective Concentration)",4.5 µg/mL
same,EC90,"HBV [2]; Hepatitis B virus, HepG2 2.2.15, read-out: EC90 (Effective Concentration)",15 µg/mL
same,CC50,[3],846 µg/mL
